Source: patent US9730937B2, “RAF kinase modulator compounds and methods of use thereof” (AMBIT BIOSCIENCES CORPORATION, priority 2008, dated 2017)
Structures can show the parent of a compound that is named as a salt. Where two headings read alike, the source gives them in different places.

Legend:
mutant BRAF kinase = mutant BRAF kinase (Homo sapiens (Human), UniProt P15056, V600E); conditions: read-out: BRAF V600E Kd, class symbols
[1] = tested on: panel of 290 distinct kinases (321 in the larger panel), excluding mutant variants; conditions: kinase selectivity score, class symbols
[2] = value marked * (larger kinase panel)

mutant BRAF kinase, sequence (P15056 whole entry V600E): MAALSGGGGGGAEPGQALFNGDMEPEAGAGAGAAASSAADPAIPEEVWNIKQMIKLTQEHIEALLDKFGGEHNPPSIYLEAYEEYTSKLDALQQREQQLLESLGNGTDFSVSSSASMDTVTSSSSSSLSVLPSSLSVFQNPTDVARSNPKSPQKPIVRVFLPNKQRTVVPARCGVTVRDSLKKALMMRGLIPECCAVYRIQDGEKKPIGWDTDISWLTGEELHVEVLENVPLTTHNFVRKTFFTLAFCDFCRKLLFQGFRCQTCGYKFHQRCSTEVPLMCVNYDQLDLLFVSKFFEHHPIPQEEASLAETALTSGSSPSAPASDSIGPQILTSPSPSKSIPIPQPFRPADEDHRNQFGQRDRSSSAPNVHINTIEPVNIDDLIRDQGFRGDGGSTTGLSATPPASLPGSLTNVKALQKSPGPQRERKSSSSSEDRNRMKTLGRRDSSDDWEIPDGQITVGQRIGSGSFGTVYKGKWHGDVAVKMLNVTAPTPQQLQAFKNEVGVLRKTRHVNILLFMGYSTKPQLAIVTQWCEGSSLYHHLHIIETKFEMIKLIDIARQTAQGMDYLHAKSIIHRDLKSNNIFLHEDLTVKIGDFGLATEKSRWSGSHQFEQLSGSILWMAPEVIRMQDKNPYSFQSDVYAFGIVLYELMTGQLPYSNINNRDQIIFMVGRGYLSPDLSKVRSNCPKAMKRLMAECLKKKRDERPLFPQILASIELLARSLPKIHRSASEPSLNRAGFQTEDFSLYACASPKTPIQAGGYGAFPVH

COCCOc1cc2c(Oc3cccc(NC(=O)Nc4cc(C(C)(C)C)on4)c3)ncnc2cc1OC [Ex 15, 1-(5-tert-butylisoxazol-3-yl)-3-{3-[7-methoxy-6-(2-methoxyethoxy)quinazolin-4-yloxy]phenyl}urea hydrochloride]
Kd (mutant BRAF kinase): < 250 nM
S35 ([1]; 290 distinct kinases): C (0.20 < C ≦ 0.40)

COc1cc2c(Oc3cccc(NC(=O)Nc4cc(C(C)(C)C)on4)c3)ncnc2cc1OCCN1CCN(CCO)CC1 [Ex 38, 1-(5-tert-butylisoxazol-3-yl)-3-(3-(7-(2-(4-(2-hydroxyethyl)piperazin-1-yl)ethoxy)-6-methoxyquinazolin-4-yloxy)phenyl)urea]
Kd (mutant BRAF kinase): < 250 nM
S35 ([1]; 290 distinct kinases): D (D > 0.40)

COc1cc2ncnc(Sc3cccc(NC(=O)Nc4cc(C(C)(C)C)on4)c3)c2cc1OCCN1CCN(C)CC1 [Ex 67, 1-(5-tert-butylisoxazol-3-yl)-3-(3-(7-methoxy-6-(2-(4-methylpiperazin-1-yl)ethoxy)quinazolin-4-ylthio)phenyl)urea]
Kd (mutant BRAF kinase): < 250 nM
S35 ([1]; 290 distinct kinases): C (0.20 < C ≦ 0.40)

COc1cc2ncnc(Oc3cccc(NC(=O)Nc4cc(C(C)(F)F)no4)c3)c2cc1OC [Ex 152, 1-(3-(1,1-difluoroethyl)isoxazol-5-yl)-3-(3-(6,7-dimethoxyquinazolin-4-yloxy)phenyl)urea]
Kd (mutant BRAF kinase): < 250 nM
S35 [1, 2]: C* (0.20 < C ≦ 0.40)

COc1cc2c(Sc3cccc(NC(=O)Nc4cc(C(C)(C)C)on4)c3)ncnc2cc1OCCCN1CCN(S(C)(=O)=O)CC1 [Ex 77, 1-(5-tert-butylisoxazol-3-yl)-3-(3-(6-methoxy-7-(3-(4-(methylsulfonyl)piperazin-1-yl)propoxy)quinazolin-4-ylthio)phenyl)urea]
Kd (mutant BRAF kinase): < 250 nM
S35 ([1]; 290 distinct kinases): D (D > 0.40)

COc1cc2ncnc(Sc3cccc(NC(=O)Nc4cc(C(C)(C)C)on4)c3)c2cc1OCCCN1CCN(C)CC1 [Ex 59, 1-(5-tert-butylisoxazol-3-yl)-3-(3-(7-methoxy-6-(3-(4-methylpiperazin-1-yl)propoxy)quinazolin-4-ylthio)phenyl)urea]
Kd (mutant BRAF kinase): < 250 nM
S35 ([1]; 290 distinct kinases): D (D > 0.40)

COc1cc2ncnc(Oc3cccc(NC(=O)Nc4cc(C(C)(C)C)on4)c3)c2cc1OCCCN1CCN(S(C)(=O)=O)CC1 [Ex 25, 1-(5-tert-butylisoxazol-3-yl)-3-(3-(7-methoxy-6-(3-(4-(methylsulfonyl)piperazin-1-yl)propoxy)quinazolin-4-yloxy)phenyl)urea]
Kd (mutant BRAF kinase): < 250 nM
S35 ([1]; 290 distinct kinases): D (D > 0.40)

COc1cc2c(Sc3cccc(NC(=O)Nc4cc(C(C)(C)C)on4)c3)ncnc2cc1OCCN1CCCCC1 [Ex 80, 1-(5-tert-butylisoxazol-3-yl)-3-(3-(6-methoxy-7-(2-(piperidin-1-yl)ethoxy)quinazolin-4-ylthio)phenyl)urea]
Kd (mutant BRAF kinase): < 250 nM
S35 ([1]; 290 distinct kinases): C (0.20 < C ≦ 0.40)

COc1cc2ncnc(Oc3cccc(NC(=O)Nc4cc(C(F)(F)F)ncn4)c3)c2cc1OC [Ex 146, 1-(3-(6,7-dimethoxyquinazolin-4-yloxy)phenyl)-3-(6-(trifluoromethyl)pyrimidin-4-yl)urea]
Kd (mutant BRAF kinase): < 250 nM
S35 [1, 2]: B* (0.10 < B ≦ 0.20)

COc1cc2ncnc(Oc3cccc(NC(=O)Nc4cc(C(C)(C)C)on4)c3)c2cc1OCCN1CCN(C)CC1 [Ex 18, 1-(5-tert-butylisoxazol-3-yl)-3-(3-(7-methoxy-6-(2-(4-methylpiperazin-1-yl)ethoxy)quinazolin-4-yloxy)phenyl)urea]
Kd (mutant BRAF kinase): < 250 nM
S35 ([1]; 290 distinct kinases): D (D > 0.40)

COc1cc2c(Oc3cccc(NC(=O)Nc4cc(C(C)(C)C)on4)c3)ncnc2cc1OCCN1CCC(CO)CC1 [Ex 37, 1-(5-tert-butyl-isoxazol-3-yl)-3-(3-{7-[2-(4-hydroxymethyl-piperidin-1-yl)-ethoxy]-6-methoxy-quinazolin-4-yloxy}-phenyl)-urea]
Kd (mutant BRAF kinase): < 250 nM
S35 ([1]; 290 distinct kinases): C (0.20 < C ≦ 0.40)

COCCOc1cc2ncnc(Oc3cccc(NC(=O)Nc4cc(C(C)(C)C)on4)c3)c2cc1OC [Ex 7, 1-(5-tert-Butylisoxazol-3-yl)-3-{3-[6-methoxy-7-(2-methoxyethoxy)quinazolin-4-yloxy]phenyl}urea hydrochloride]
Kd (mutant BRAF kinase): < 250 nM
S35 ([1]; 290 distinct kinases): D (D > 0.40)

COc1cc2ncnc(Oc3cccc(NC(=O)Nc4cc(C(C)(C)C)on4)c3)c2cc1OC[C@H](O)CN1CCN(C)CC1 [Ex 112, (R)-1-(5-tert-butylisoxazol-3-yl)-3-(3-(6-(2-hydroxy-3-(4methylpiperazin-1-yl)propoxy)-7-methoxyquinazolin-4-yloxy)phenyl)urea]
Kd (mutant BRAF kinase): < 250 nM
S35 ([1]; 290 distinct kinases): D (D > 0.40)

CC(C)(C)c1cc(NC(=O)Nc2cccc(Oc3ncnc4ccc(-c5ccc(CNCCS(C)(=O)=O)o5)cc34)c2)no1 [Ex 92, 1-(5-tert-butylisoxazol-3-yl)-3-{3-[6-(5-{[2-(methylsulfonyl)ethylamino]methyl}furan-2-yl)quinazolin-4-yloxy]phenyl}urea]
Kd (mutant BRAF kinase): < 250 nM
S35 ([1]; 290 distinct kinases): C (0.20 < C ≦ 0.40)

COc1cc2c(Oc3cccc(NC(=O)Nc4cc(C(C)(C)C)on4)c3)ncnc2cc1OCCN1CCN(C)CC1 [Ex 36, 1-(5-tert-butylisoxazol-3-yl)-3-(3-(6-methoxy-7-(2-(4-methylpiperazin-1-yl)ethoxy)quinazolin-4-yloxy)phenyl)urea]
Kd (mutant BRAF kinase): < 250 nM
S35 ([1]; 290 distinct kinases): C (0.20 < C ≦ 0.40)

COCCOc1ccc2c(Oc3cccc(NC(=O)Nc4cc(C(C)(C)C)on4)c3)ncnc2c1 [Ex 43, 1-(5-tert-butylisoxazol-3-yl)-3-(3-(7-(2-methoxyethoxy)quinazolin-4-yloxy)phenyl)urea]
Kd (mutant BRAF kinase): < 250 nM
S35 ([1]; 290 distinct kinases): C (0.20 < C ≦ 0.40)

COc1cc2ncnc(Oc3cccc(NC(=O)Nc4ccc(C(C)(C)C)cc4)c3)c2cc1OC [Ex 173, 1-(4-tert-butylphenyl)-3-(3-(6,7-dimethoxyquinazolin-4-yloxy)phenyl)urea]
Kd (mutant BRAF kinase): < 250 nM
S35 ([1]; 290 distinct kinases): C (0.20 < C ≦ 0.40)

CCOc1cccc(NC(=O)Nc2cccc(Oc3ncnc4cc(OC)c(OC)cc34)c2)c1 [Ex 179, 1-(3-(6,7-dimethoxyquinazolin-4-yloxy)phenyl)-3-(3-ethoxyphenyl)urea]
Kd (mutant BRAF kinase): < 250 nM
S35 [1, 2]: B* (0.10 < B ≦ 0.20)

COc1cc2c(Sc3cccc(NC(=O)Nc4cc(C(C)(C)C)on4)c3)ncnc2cc1OCCN1CCN(S(C)(=O)=O)CC1 [Ex 81, 1-(5-tert-butylisoxazol-3-yl)-3-(3-(6-methoxy-7-(2-(4-(methylsulfonyl)piperazin-1-yl)ethoxy)quinazolin-4-ylthio)phenyl)urea]
Kd (mutant BRAF kinase): < 250 nM
S35 ([1]; 290 distinct kinases): C (0.20 < C ≦ 0.40)

COc1cc2c(Oc3cccc(NC(=O)Nc4cc(C(C)(C)C)on4)c3)ncnc2cc1OCCCN1CC[C@H](O)C1 [Ex 33, (S)-1-(5-tert-butylisoxazol-3-yl)-3-(3-(7-(3-(3-hydroxypyrrolidin-1-yl)propoxy)-6-methoxyquinazolin-4-yloxy)phenyl)urea]
Kd (mutant BRAF kinase): < 250 nM
S35 [1, 2]: D* (D > 0.40)

COc1cc2c(Oc3cccc(NC(=O)Nc4cc(C(C)(C)C)on4)c3)ncnc2cc1OCCN1CCOCC1 [Ex 35, 1-(5-tert-butylisoxazol-3-yl)-3-(3-(6-methoxy-7-(2-morpholinoethoxy)quinazolin-4-yloxy)phenyl)urea]
Kd (mutant BRAF kinase): < 250 nM
S35 ([1]; 290 distinct kinases): C (0.20 < C ≦ 0.40)

COc1cc2c(Oc3cccc(NC(=O)Nc4cc(C(C)(C)C)on4)c3)ncnc2cc1OCCCN1CCN(S(C)(=O)=O)CC1 [Ex 32, 1-(5-tert-butylisoxazol-3-yl)-3-(3-(6-methoxy-7-(3-(4-(methylsulfonyl)piperazin-1-yl)propoxy)quinazolin-4-yloxy)phenyl)urea]
Kd (mutant BRAF kinase): < 250 nM
S35 ([1]; 290 distinct kinases): D (D > 0.40)

COc1cc2c(Oc3cccc(NC(=O)Nc4cc(C(C)(C)C)on4)c3)ncnc2cc1O[C@H]1CCN(C)C1 [Ex 97, (S)-1-(5-tert-butylisoxazol-3-yl)-3-(3-(6-methoxy-7-(1-methylpyrrolidin-3-yloxy)quinazolin-4-yloxy)phenyl)urea mono acetate]
Kd (mutant BRAF kinase): < 250 nM
S35 ([1]; 290 distinct kinases): C (0.20 < C ≦ 0.40)

COc1cc2ncnc(Oc3cccc(NC(=O)Nc4cc(C(C)(C)C)on4)c3)c2cc1OCCN1CCC(CO)CC1 [Ex 17, 1-(5-tert-butylisoxazol-3-yl)-3-(3-(6-(2-(4-(hydroxymethyl)piperidin-1-yl)ethoxy)-7-methoxyquinazolin-4-yloxy)phenyl)urea]
Kd (mutant BRAF kinase): < 250 nM
S35 ([1]; 290 distinct kinases): C (0.20 < C ≦ 0.40)

COc1cc2ncnc(Oc3cccc(NC(=O)Nc4cc(C(C)(C)C)on4)c3)c2cc1OCCCN1CCCCC1 [Ex 23, 1-(5-tert-butylisoxazol-3-yl)-3-(3-(7-methoxy-6-(3-(piperidin-1-yl)propoxy)quinazolin-4-yloxy)phenyl)urea]
Kd (mutant BRAF kinase): < 250 nM
S35 ([1]; 290 distinct kinases): D (D > 0.40)

COc1cc2c(Oc3cccc(NC(=O)Nc4cc(C(C)(C)C)on4)c3)ncnc2cc1OCCCN1CCOCC1 [Ex 27, 1-(5-tert-butylisoxazol-3-yl)-3-(3-(6-methoxy-7-(3-morpholinopropoxy)quinazolin-4-yloxy)phenyl)urea]
Kd (mutant BRAF kinase): < 250 nM
S35 ([1]; 290 distinct kinases): D (D > 0.40)

COc1cc2c(Oc3cccc(NC(=O)Nc4cc(C(C)(C)C)on4)c3)ncnc2cc1O [Ex 95, 1-(5-tert-butylisoxazol-3-yl)-3-(3-(7-hydroxy-6-methoxyquinazolin-4-yloxy)phenyl)urea]
Kd (mutant BRAF kinase): < 250 nM
S35 ([1]; 290 distinct kinases): C (0.20 < C ≦ 0.40)

COc1cc2c(Sc3cccc(NC(=O)Nc4cc(C(C)(C)C)on4)c3)ncnc2cc1OCCN1CCOCC1 [Ex 79, (1-(5-tert-butylisoxazol-3-yl)-3-(3-(6-methoxy-7-(2-morpholinoethoxy)quinazolin-4-ylthio)phenyl)urea)]
Kd (mutant BRAF kinase): < 250 nM
S35 ([1]; 290 distinct kinases): D (D > 0.40)

COCCOc1cc2ncnc(Oc3cccc(NC(=O)Nc4cc(C(C)(C)C)no4)c3)c2cc1OC [Ex 202, 1-(3-tert-butylisoxazol-5-yl)-3-(3-(6-methoxy-7-(2-methoxyethoxy)quinazolin-4-yloxy)phenyl)urea]
Kd (mutant BRAF kinase): < 250 nM
S35 ([1]; 290 distinct kinases): C (0.20 < C ≦ 0.40)
